Laboratory results published in publication PMC9227106 (Viruses, 2022).
Several values for one entry are separate records, joined by “and”; a condition that tells them apart may be missing. Identical values can stand only once. Like-named read-outs stand apart in the source and are kept apart here.

Tests used:
[1] = system: Vpr-induced G2/M arrest in Vpr transfected HeLa cells; assay: Cell-based G2 arrest inhibition assay using […]; set-up: species or system human; conditions: 10 µM, 44 h; for G2 arrest recover (CELAVIEW) recover rate vs DMSO(%): added 4 h post-transfection
[2] = Cell-based cytotoxicity analysis, WST-1 assay (HeLa cell); conditions: human; for viability at 48 h, 10 µM: vs DMSO; for CC50: 50% cytotoxic concentration, HeLa cells, WST-1
[3] = Cell-based cytotoxicity analysis, WST-1 assay (MDM cell); conditions: human
Flag-Vpr in HeLa cells [4] = assay: Expression level of Vpr assessed by Western blotting analysis; type: cell-based, HIV-1; conditions: 10 μM, 44 h post-treatment
Flag-Vpr in HeLa cells [5] = assay: Localization of Vpr visualized by confocal microscopy; type: cell-based, HIV-1; conditions: 10 μM, 44 h post-treatment
HIV-1 NF462 = assay: Inhibition assay of HIV replication in HIV-infected MDM (p24 ELISA); type: cell-based; conditions: for inhibition of HIV-1 replication in MDM / inhibition at 10 µM: 10 µM; for inhibition of HIV-1 replication in MDM: two healthy donors 1 and 2, result in words; for inhibition at 10 µM: 8 days; for IC50: read-out: MDM IC50; for MDM SI: selective index, calculated as CC50/IC50 in MDM
[6] = system: Vpr-induced G2/M arrest in Vpr transfected HeLa cells; assay: Analysis of the cell cycle using flow cytometry; type: cell-based, human; conditions: for recovery of the G2-arrest mediated by Vpr (flow cytometry): 10 μM, Vpr-expressing HeLa cells, result in words; for G2 arrest recover (Flow cytometry) Vpr G1% / G2 arrest recover (Flow cytometry) Vpr G2% / G2 arrest recover (Flow cytometry) Vpr G2/G1: Flag-Vpr transfected HeLa; for G2 arrest recover (Flow cytometry) Vpr G1% / G2 arrest recover (Flow cytometry) Vpr G2% / G2 arrest recover (Flow cytometry) Vpr G2/G1 / G2 arrest recover (Flow cytometry) ZsG G1% / G2 arrest recover (Flow cytometry) ZsG G2% / G2 arrest recover (Flow cytometry) ZsG G2/G1: 10 µM; for G2 arrest recover (Flow cytometry) ZsG G1% / G2 arrest recover (Flow cytometry) ZsG G2% / G2 arrest recover (Flow cytometry) ZsG G2/G1: control vector (ZsG) transfected HeLa
GST-tagged Vpr protein = molecular target: T1, GST-tagged Vpr protein (Human immunodeficiency virus type 1 group M subtype B, UniProt P12520); assay: Surface plasmon resonance (SPR) binding analysis; set-up: species or system HIV-1; conditions: for direct binding to Vpr (SPR): 50 μM compound, GST-Vpr on sensor chip, result in words; for Vpr Binding Kd: SPR (Biacore), GST-Vpr, 3.13 to 100 µM, two independent experiments
T1 construct: made in house; host or cells: E. coli

[7] = average of n=1 and n=2, read-out: HeLa viability (%) AVERAGE
[8] = replicate 1, read-out: HeLa viability (%) viability n=1
[9] = replicate 2, read-out: HeLa viability (%) viability n=2
[10] = Human immunodeficiency virus 1, MDM donor 1, p24 ELISA, read-out: HIV replication inhibition (%) Donor 1
[11] = Human immunodeficiency virus 1, MDM donor 2, p24 ELISA, read-out: HIV replication inhibition (%) Donor 2
[12] = Human immunodeficiency virus 1, HIV-1 NF462-infected MDM, donors 1 and 4, 8 days, p24 ELISA

T1 sequence (P12520 whole entry): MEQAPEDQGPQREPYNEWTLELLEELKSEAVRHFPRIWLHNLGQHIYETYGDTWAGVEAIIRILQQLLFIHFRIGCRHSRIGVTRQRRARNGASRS

For `COc1ccc2ccccc2c1C1C=C(c2ccccc2)NC(=S)N1` (stereo not shown) [VTD232, 4-(2-methoxy-1-naphthyl)-6-phenyl-3,4-dihydro-2(1H)-pyrimidinethione], the “G2 arrest recover (CELAVIEW) cell count vs DMSO” value [1] was 95.1, the “G2 arrest recover (CELAVIEW) recover rate vs DMSO(%)” value (“G2 arrest recover … vs DMSO(%)” below) [1] was 49.2% and the viability at 48 h, 10 µM [2, 7] was 87.5%. The viability at 48 h, 10 µM [2, 8] was 88%, the viability at 48 h, 10 µM [2, 9] was 87% and the CC50 [2] was 57.1 ± 30.9 µM. For the same compound, the CC50 at 48 h [3] was 30.5 ± 5 µM, the viability at 10 days, 10 µM [3] was 116% and the “expression level of Vpr in HeLa cells” value (Flag-Vpr in HeLa cells [4]) was “not affected”. The “localization of Vpr in HeLa cells” value (Flag-Vpr in HeLa cells [5]) was “not affected”, the “inhibition of HIV-1 replication in MDM” value (HIV-1 NF462) was “potently inhibited HIV-1 replication” and the inhibition at 10 µM (HIV-1 NF462; [10]) was 99.1%. The inhibition at 10 µM (HIV-1 NF462; [11]) was 82.2%, the IC50 (HIV-1 NF462; [12]) was 0.0039 ± 0.0046 µM and the “MDM SI” value (HIV-1 NF462) was 7820. For the same compound, the “recovery of the G2-arrest mediated by Vpr (flow cytometry)” value (from here on “recovery of the G2-arrest mediated”) [6] was “recovered the G2-arrest mediated by Vpr”, the “G2 arrest recover (Flow cytometry) Vpr G1%” value [6] was 29.06% and the “G2 arrest recover (Flow cytometry) Vpr G2%” value [6] was 39.99%. The “G2 arrest recover (Flow cytometry) Vpr G2/G1” value [6] was 1.376, the “G2 arrest recover (Flow cytometry) ZsG G1%” value [6] was 49.39% and the “G2 arrest recover (Flow cytometry) ZsG G2%” value [6] was 11.48%. For the same compound, the “G2 arrest recover (Flow cytometry) ZsG G2/G1” value [6] was 0.2324, the “direct binding to Vpr (SPR)” value (GST-tagged Vpr protein) was “did not directly bind to Vpr” and the “Vpr Binding Kd” value (GST-tagged Vpr protein) was “Not binding”.
For `COCCCNC(=O)C(=O)N/N=C/c1c(O)ccc2ccccc12` [VTD227, N-[(1E)-2-(2-hydroxynaphthyl)-1-azavinyl]-N′-(3-methoxypropyl)ethane-1,2-diamide], the “G2 arrest recover (CELAVIEW) cell count vs DMSO” value [1] was 72.8, the “G2 arrest recover … vs DMSO(%)” value [1] was 60.0% and the viability at 48 h, 10 µM [2, 7] was 89.2%. For the same compound, the viability at 48 h, 10 µM [2, 8] was 84.2%, the viability at 48 h, 10 µM [2, 9] was 94.2% and the CC50 [2] was 99 ± 22 µM. The CC50 at 48 h [3] was 17.9 ± 5.3 µM, the viability at 10 days, 10 µM [3] was 82% and the “expression level of Vpr in HeLa cells” value (Flag-Vpr in HeLa cells [4]) was “not affected”. For the same compound, the “localization of Vpr in HeLa cells” value (Flag-Vpr in HeLa cells [5]) was “not affected”, the “inhibition of HIV-1 replication in MDM” value (HIV-1 NF462) was “potently inhibited HIV-1 replication” and the inhibition at 10 µM (HIV-1 NF462; [10]) was 99.5%. The inhibition at 10 µM (HIV-1 NF462; [11]) was 103%, the IC50 (HIV-1 NF462; [12]) was 0.78 ± 0.59 µM and the “MDM SI” value (HIV-1 NF462) was 22.9. For the same compound, the “recovery of the G2-arrest mediated” value [6] was “recovered the G2-arrest mediated by Vpr”, the “G2 arrest recover (Flow cytometry) Vpr G1%” value [6] was 41.76% and the “G2 arrest recover (Flow cytometry) Vpr G2%” value [6] was 22.13%. The “G2 arrest recover (Flow cytometry) Vpr G2/G1” value [6] was 0.52 and 0.5299, the “G2 arrest recover (Flow cytometry) ZsG G1%” value [6] was 44.2% and the “G2 arrest recover (Flow cytometry) ZsG G2%” value [6] was 25.62%. For the same compound, the “G2 arrest recover (Flow cytometry) ZsG G2/G1” value [6] was 0.57 and 0.5796 and the Kd (GST-tagged Vpr protein) was 8.8 ± 0.48 µM.
In the case of `CCOc1ccc(OCC(=O)Nc2cc(C)nn2-c2nc(C)c(CC)c(O)n2)cc1` [VTD263, 2-(4-ethoxyphenoxy)-N-[1-(5-ethyl-6-methyl-4-oxo(3-hydropyrimidin-2-yl))-3-methylpyrazol-5-yl]acetamide], the “G2 arrest recover (CELAVIEW) cell count vs DMSO” value [1] is reported as 81.6, the “G2 arrest recover … vs DMSO(%)” value [1] is reported as 95.5% and the viability at 48 h, 10 µM [2, 7] is reported as 70.1%. For the same compound, the viability at 48 h, 10 µM [2, 8] was 65.5%, the viability at 48 h, 10 µM [2, 9] was 74.7% and the CC50 [2] was greater than 100 µM. The CC50 at 48 h [3] was 38.8 ± 0.76 µM, the viability at 10 days, 10 µM [3] was 131% and the “expression level of Vpr in HeLa cells” value (Flag-Vpr in HeLa cells [4]) was “not affected”. For the same compound, the “localization of Vpr in HeLa cells” value (Flag-Vpr in HeLa cells [5]) was “not affected”, the “inhibition of HIV-1 replication in MDM” value (HIV-1 NF462) was “potently inhibited HIV-1 replication” and the “effect on HIV-1 replication at low concentration” value (HIV-1 NF462; 0.01 to 0.001 μM, MDM) was “tended to increase HIV-1 replication”. For the same compound, the IC50 (HIV-1 NF462; Human immunodeficiency virus 1, […]) was 11.4 ± 4 µM, the inhibition at 10 µM (HIV-1 NF462; [10]) was 91.2% and the inhibition at 10 µM (HIV-1 NF462; [11]) was 73.3%. The “effect on HIV-1 virus release at high concentration” value (HIV-1 NF462; high concentration, MDM) was “decreased the HIV-1 virus release”, the “MDM SI” value (HIV-1 NF462) was 3.4 and the “recovery of the G2-arrest mediated” value [6] was “recovered the G2-arrest mediated by Vpr”. For the same compound, the “G2 arrest recover (Flow cytometry) Vpr G1%” value [6] was 45.86%, the “G2 arrest recover (Flow cytometry) Vpr G2%” value [6] was 23.17% and the “G2 arrest recover (Flow cytometry) Vpr G2/G1” value [6] was 0.5052. The “G2 arrest recover (Flow cytometry) ZsG G1%” value [6] was 43.35%, the “G2 arrest recover (Flow cytometry) ZsG G2%” value [6] was 18.73% and the “G2 arrest recover (Flow cytometry) ZsG G2/G1” value [6] was 0.4321. For the same compound, the “direct binding to Vpr (SPR)” value (GST-tagged Vpr protein) was “did not directly bind to Vpr” and the “Vpr Binding Kd” value (GST-tagged Vpr protein) was “Not binding”.
